Data from PubChem BioAssay (NCI).
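Cultured in 96-well plates, cells were exposed to test compound for 48 hours across five concentrations. GI50: concentration for 50% inhibition of growth. TGI denotes the concentration required for complete inhibition of growth.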

What was measured:
Test in all cases: DTP human tumour cell line panel, 48 h
[1] = test system: ACHN renal
[2] = test system: PC-3 prostate
[3] = test system: OVCAR-5 ovarian
[4] = test system: BT-549 breast
[5] = test system: HT29 colon
[6] = test system: NCI-H522 lung
[7] = test system: UO-31 renal
[8] = test system: SF-268 CNS
[9] = test system: EKVX NSCLC
[10] = test system: HL-60(TB) leukemia

SMILES | GI50 [1] | TGI [1] | GI50 [2] | TGI [2] | GI50 [3] | TGI [3] | GI50 [4] | TGI [4] | GI50 [5] | TGI [5] | GI50 [6] | TGI [6] | GI50 [7] | TGI [7] | GI50 [8] | TGI [8] | GI50 [9] | TGI [9] | GI50 [10] | TGI [10]
C=CC(=O)N1CC[C@@H](Oc2nc(Nc3ccc(N4CCC(N5CCN(C)CC5)CC4)cc3)c(C(N)=O)nc2CC)C1 | > 100 µM | > 100 µM | > 100 µM | > 100 µM | > 100 µM | > 100 µM | > 100 µM | > 100 µM | > 100 µM | > 100 µM | > 100 µM | > 100 µM | > 100 µM | > 100 µM | > 100 µM | > 100 µM | > 100 µM | > 100 µM | > 100 µM | > 100 µM
C/C=C\C(C)=C/C(C)C(=O)CC(O)CC1CC(=O)NC(=O)C1 (stereo not given) | – | > 100 µM | – | > 100 µM | – | > 100 µM | – | > 100 µM | – | > 100 µM | – | 13.6 µM | – | > 100 µM | – | > 100 µM | – | > 100 µM | – | > 100 µM
COC(=O)c1cc2c([nH]c3ccccc32)c(-c2nc3cc(N(S(=O)(=O)c4ccc(C)cc4)S(=O)(=O)c4ccc(C)cc4)c(OC)cc3cc2CO)n1 | > 100 µM | > 100 µM | > 100 µM | > 100 µM | > 100 µM | > 100 µM | > 100 µM | > 100 µM | > 100 µM | > 100 µM | > 100 µM | > 100 µM | > 100 µM | > 100 µM | > 100 µM | > 100 µM | > 100 µM | > 100 µM | 31.7 µM | 75.7 µM
O=C1c2cccc3cc4ccccc4c(c23)C(=O)N1CCCNCCNCCCN1C(=O)c2cccc3cc4ccccc4c(c23)C1=O | – | 1.6 µM | – | 1.43 µM | – | 1.98 µM | – | 2.4 µM | – | 0.555 µM | – | 1.46 µM | – | 1.96 µM | – | 2.18 µM | – | 2.37 µM | – | 8.28 µM
N#CC1=C(N)Oc2c(ccc3ccccc23)C1c1ccccc1Cl (stereo not given) | 0.718 µM | 19.6 µM | 0.317 µM | 16.2 µM | 0.545 µM | 18.8 µM | 1.2 µM | 7.74 µM | 0.362 µM | 12.6 µM | 0.0848 µM | 3.22 µM | 0.282 µM | 24.8 µM | 1.11 µM | 15.5 µM | 0.652 µM | 22.2 µM | 0.27 µM | 0.776 µM
COc1ccc(/C(C)=C(\c2ccc(Cl)cc2)c2ccc(OCCN3CCCCC3)cc2)cc1F | 4.93 µM | 14.4 µM | 2.67 µM | 7.47 µM | 3.06 µM | 9.45 µM | 3.11 µM | 7.47 µM | 0.65 µM | > 16.7 µM | 3.54 µM | 7.94 µM | 2.05 µM | 4.21 µM | 5.96 µM | > 16.7 µM | 4.78 µM | > 16.7 µM | 2.85 µM | 6.82 µM
COc1cc(OC)c(-c2oc3ccccc3c(=O)c2O)c(OC)c1 | – | > 100 µM | – | > 100 µM | – | > 100 µM | – | > 100 µM | – | > 100 µM | – | > 29.2 µM | – | > 100 µM | – | > 100 µM | – | > 100 µM | – | > 24.1 µM
COC(=O)[C@@H](C)C[C@H](Cc1ccccc1)NC(=O)c1cccc([C@@H](C[C@H](C(C)C)N(C)C(=O)[C@@H](NC(=O)[C@H]2CCCCN2C)C(C)C)OC(C)=O)n1 | < 0.00167 µM | > 16.7 µM | < 0.00167 µM | > 16.7 µM | 0.00772 µM | > 16.7 µM | 0.0025 µM | 0.101 µM | < 0.00167 µM | > 16.7 µM | < 0.00167 µM | 0.00263 µM | 0.0127 µM | > 16.7 µM | 0.0164 µM | > 16.7 µM | 0.00497 µM | > 16.7 µM | < 0.00167 µM | 0.00181 µM
CN(C)c1ccc(/C=C/C(=O)c2ccc(Nc3nc(Nc4ccc(F)cc4)nc(Nc4ccc(Cl)cc4)n3)cc2)cc1 | 6.13 µM | > 100 µM | 2.08 µM | 5.45 µM | 20.3 µM | > 100 µM | 7.39 µM | 55.7 µM | 5.18 µM | 38.9 µM | 3.17 µM | 24.1 µM | 3.22 µM | 21.4 µM | 6.75 µM | 63.6 µM | 8.21 µM | > 100 µM | 1.75 µM | 5.34 µM
CNCc1ccc(C)c(NC(=O)c2ccc(Nc3nc(-c4ccccc4)c4ccccc4n3)cc2)c1 | 2.01 µM | 3.82 µM | 1.92 µM | 4.15 µM | 2.13 µM | 4.56 µM | 1.84 µM | 3.37 µM | 1.86 µM | 3.98 µM | 1.86 µM | 3.57 µM | 1.67 µM | 3.75 µM | 2.09 µM | 4.26 µM | 1.64 µM | 3.35 µM | 1.92 µM | 4.33 µM
